Columns and labels:
MDCK cells = assay: Extracellular matrix invasion assay, MDCK cells in collagen gels; format: cell-based, canine; conditions: HGF 10 ng/ml, peptide 100 nM, 5 days
Experimental: MDCK cell invasion into three-dimensional collagen gels was analyzed as previously described. Briefly, type I collagen (1.5 mg/ml; Cohesion Technologies) was mixed with 10×MEM and sodium bicarbonate (11.76 mg/ml) at a ratio of 8:1:1 (vol:vol:vol) on ice, and 0.4 ml aliquots were dispensed into 16-mm tissue culture wells (Nunc), and allowed to gel at 37° C. for 20 min. Cells were seeded onto gels (1×10^4 cells/well) in 0.4 ml of growth medium containing HGF and/or peptides 1 or 4 as indicated. After 5 days, cells were fixed in situ in 2.5% glutaraldehyde in 0.1 M sodium cacodylate buffer (pH 7.4), and cells that had invaded the gel below the surface monolayer in ten randomly selected fields (1×1.4 mm) were counted microscopically using a 20× phase contrast objective. Depth of cellular invasion into the collagen gel was quantitated in the same ten fields per treatment group using a calibrated fine focusing micrometer. Values were compared using the Student's unpaired t-test and a significant value was taken as P<0.001. Results in Table 1 are shown as the mean number of invading cells/field or mean invasion depth/cell in microns+standard error of the mean.
MDCK cells were left untreated (Control), treated with HGF (10 ng/ml), or HGF+peptide 2 or 4 (100 nM), and invasion into collagen matrices was quantitated microscopically as described above. Values are the mean of at least 10 randomly selected fields±standard error of the mean. Epithelial Tube Formation Assay

HUVE cells [1] = assay: HUVE cell migration, modified Boyden chamber; format: cell-based, human
Experimental: The migration assay of HUVE and HMEC-1 cells in modified Boyden chambers was adapted from previously described procedures (Murohara et al., Thromb. Vasc. Biol., 19: 1156-61 (1999), Malinda et al., FASEB J., 13: 53-62 (1999)). In brief, Biocoat Cell Environment control inserts (8 micron pore size; Becton Dickinson) were coated with 0.1% gelatin (Sigma) for at least 1 hour at 37° C. and air dried. Lower chambers contained 0.7 ml RPMI+0.1% BSA, to which 20 ng/ml HGF and/or 300 nM Grb2 inhibitors were added. Cells were pre-treated with the indicated concentrations of Grb2 inhibitors for 18-24 hours, trypsinized, washed twice in RPMI+0.1% BSA, added to upper chambers (5×10^4 cells/well) with or without inhibitors in a final volume of 0.5 ml, and incubated for 4 h at 37° C. Cells on the upper surface of each filter were removed with a cotton swab, while cells that had traversed to the bottom surface of the filter were fixed and stained using Diff-Quik (Dade Diagnostics) and counted using a 10× objective. Mean values from 4 randomly selected fields (1×1.4 mm) were calculated for each of triplicate wells per experimental condition. Shown in FIG. 6 is the ratio of growth factor-treated to control migrating cells designated on the y-axis as “Migration (Fold Increase)” or as the mean number of cells per optical field in FIGS. 8-11.

HUVE cells [2] = assay: HUVE cell proliferation; format: cell-based, human
Experimental: HUVE or HMVE cells were seeded per triplicate in type I collagen-coated 48-well plates (Biocoat) (3000 cells/well) in […] of complete EGM-Bullet Kit medium (BioWhittaker, Walkersville, Md.), allowed to attach for 4 hr and incubated overnight with or without the indicated concentrations of peptide 2. The cultures were rinsed twice in serum-free medium and incubated with EBM medium (BioWhittaker) supplemented with 50 μg/ml heparin, 50 μg/ml ascorbic acid and 10% FCS. After either 4 days (HUVE) or 5 days (HMVE), cells were harvested with trypsin/EDTA and counted with an hemocytometer. The mean number of cells per ml was calculated from 3 independent measures for each of triplicate wells per experimental condition and compared to controls using the Student's unpaired t-test. Results set forth in FIG. 12 are described as the ratio of growth factor-treated to control proliferating cells designated on the y-axis as “Proliferation (Fold Increase)”.

B16-luc cells = assay: Tail vein model (induced metastasis), B16-luc, bioluminescence imaging; format: in vivo, SCID/beige mice; conditions: single 24 h pre-treatment, three week period
Experimental: B16-luc cells were pre-treated for 24 hrs with 1 micromolar C90, then trypsinized, washed in PBS and spun down at 650 rpm to be resuspended in HBSS at the appropriate cell density for injection (1×10^6 cells). Injection was boosted with 10 micromolar C90. Cell where then injected in the dorsal tail vein of severe combined immunodeficient (SCID)/beige mice (Taconic Inc., Germantown, N.Y.).
Cells prepared for xenograft injections were pretreated with C-90 for 24 h. Cells were injected in to mice (5 per group) by either tail vein (B16-luc, induced metastasis model) or subcutaneously (PC3M-luc, spontaneous metastasis model). Imaging of the PC3M cell metastases in lungs ex vivo (FIG. 14A)) correlated with earlier scans of intact animals (data not shown). Units are proportional to photons emitted within a defined time interval (total flux).

NC(=O)C[C@H](NC(=O)C1(NC(=O)[C@H](Cc2ccc(C(C(=O)O)C(=O)O)cc2)NC(=O)C(=O)O)CCCCC1)C(=O)NCCCc1cccc2ccccc12 [peptide 2, (N-oxalyl-4-malonyl)-Phe-Ac6c-Asn-NH-(3-naphthalen-1-yl-propyl)]
Mean Invading Cells/Field (MDCK cells): 12.6 ± 1.9
Mean Invasion Depth/Cell (MDCK cells): 17.9 ± 1.9 μm
VEGF-induced cell migration (HUVE cells [1]; VEGF): significantly (p<0.001) reverted
PMA-induced cell migration (HUVE cells [1]; peptide 300 nM, PMA 40 ng/ml): dramatically reverted to basal levels
HGF- VEGF-induced HUVE cell proliferation (HUVE cells [2]; peptide 30 nM): failed to significantly (p=0.05) inhibit
bFGF-dependent HUVE cell proliferation (HUVE cells [2]; peptide 30 nM, p<0.0001): inhibited
serum-dependent HUVE cell proliferation (HUVE cells [2]; peptide 30 nM, p<0.001): inhibited
HGF- VEGF-induced HUVE cell proliferation (cell counts) (HUVE cells [2]; peptide 300 nM): significant (p<0.0001) reduction in cell counts
ability to form lung metastases relative to untreated control cells (B16-luc cells): significantly reduced ability to form lung metastases

Reference: patent US7871981B2, “Inhibition of cell motility, angiogenesis, and metastasis” (The United States of America as represented by the …, priority 1999, dated 2011)
